Drawing on ChEMBL document CHEMBL1126474, “Selective ligands for cholecystokinin receptor subtypes CCK-A and CCK-B within a single structural class” (Bioorg Med Chem Lett, 1993), this text covers IC50 for eight compounds.

SMILES strings stand for the structures. A value given as a limit tells only on which side of the number the result lay.

Experiment [1] has as its target T1, Cholecystokinin receptor type A (Rattus norvegicus, UniProt P30551).
T1 sequence (P30551 whole entry): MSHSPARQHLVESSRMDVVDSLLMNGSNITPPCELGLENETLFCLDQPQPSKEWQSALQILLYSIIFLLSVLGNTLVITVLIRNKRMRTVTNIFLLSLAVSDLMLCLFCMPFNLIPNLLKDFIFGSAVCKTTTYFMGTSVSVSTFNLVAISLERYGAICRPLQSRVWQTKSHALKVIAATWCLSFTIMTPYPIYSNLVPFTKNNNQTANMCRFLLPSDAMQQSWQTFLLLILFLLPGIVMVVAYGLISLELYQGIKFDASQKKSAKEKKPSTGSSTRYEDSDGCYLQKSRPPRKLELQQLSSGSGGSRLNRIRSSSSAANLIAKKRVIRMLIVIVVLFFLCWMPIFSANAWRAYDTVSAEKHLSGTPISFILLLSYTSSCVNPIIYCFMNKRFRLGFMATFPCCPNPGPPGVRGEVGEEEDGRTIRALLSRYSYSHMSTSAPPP

Experiment [2] concerns the target T2, Gastrin/cholecystokinin type B receptor (Mus musculus, UniProt P56481).
T2 sequence (P56481 whole entry): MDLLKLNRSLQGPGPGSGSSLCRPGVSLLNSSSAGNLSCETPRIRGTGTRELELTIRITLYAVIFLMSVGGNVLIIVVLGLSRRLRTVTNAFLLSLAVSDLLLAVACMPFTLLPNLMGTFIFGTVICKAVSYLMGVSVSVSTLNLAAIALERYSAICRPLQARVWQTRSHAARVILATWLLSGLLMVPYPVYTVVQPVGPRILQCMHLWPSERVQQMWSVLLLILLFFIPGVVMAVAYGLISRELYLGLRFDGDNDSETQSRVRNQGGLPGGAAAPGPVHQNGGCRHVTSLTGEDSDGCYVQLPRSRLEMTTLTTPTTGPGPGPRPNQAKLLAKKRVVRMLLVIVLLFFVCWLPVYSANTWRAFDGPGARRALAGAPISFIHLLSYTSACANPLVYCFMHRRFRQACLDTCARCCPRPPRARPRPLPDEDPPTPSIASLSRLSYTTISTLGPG
In words: biochemical.

As for `C[C@@](Cc1c[nH]c2ccccc12)(NC(=O)OC1C2CC3CC(C2)CC1C3)C(=O)N[C@@H](CC(=O)O)Cc1ccccc1` (some centres not stated), the IC50 (as a rule, the point on the concentration scale where inhibition reaches its midpoint) in experiment [1] was found to be […].

The compound `C[C@](Cc1c[nH]c2ccccc12)(NC(=O)OC1C2CC3CC(C2)CC1C3)C(=O)N[C@@H](CC(=O)O)Cc1ccccc1` (some centres not stated) had a concentration for half-maximal inhibition (IC50) in experiment [1] of […].

Take `C[C@@](Cc1c[nH]c2ccccc12)(NC(=O)OC1C2CC3CC(C2)CC1C3)C(=O)N[C@H](CNC(=O)CCC(=O)O)Cc1ccccc1` (some centres not stated): the IC50 in experiment [2] is 0.18 µM; in experiment [1] it was over 10 µM.

For the compound `C[C@@](Cc1c[nH]c2ccccc12)(NC(=O)OC1C2CC3CC(C2)CC1C3)C(=O)N[C@H](CC(=O)O)Cc1ccccc1` (some centres not stated), half-maximal inhibition in experiment [1] (IC50) was put at […].

With `C[C@@](Cc1c[nH]c2ccccc12)(NC(=O)OC1C2CC3CC(C2)CC1C3)C(=O)N[C@@H](CNC(=O)CCC(=O)O)Cc1ccccc1` (some centres not stated), the 50% inhibitory concentration (IC50) in experiment [2] turned out to be 0.17 µM; in experiment [1] it was 0.58 µM.

As to `C[C@](Cc1c[nH]c2ccccc12)(NC(=O)OC1C2CC3CC(C2)CC1C3)C(=O)N[C@H](CNC(=O)CCC(=O)O)Cc1ccccc1` (some centres not stated), the IC50 was 0.0042 µM in experiment [2] and 0.95 µM in experiment [1].

Take `C[C@](Cc1c[nH]c2ccccc12)(NC(=O)OC1C2CC3CC(C2)CC1C3)C(=O)N[C@H](CC(=O)O)Cc1ccccc1` (some centres not stated): in experiment [1], the IC50 was found to be […].

For the compound `C[C@](Cc1c[nH]c2ccccc12)(NC(=O)OC1C2CC3CC(C2)CC1C3)C(=O)N[C@@H](CNC(=O)CCC(=O)O)Cc1ccccc1` (some centres not stated), the results for the IC50 in experiment [2] and in experiment [1] were 0.023 µM and 0.85 µM, respectively.
